Test results taken from US20260116910A1, “POLYCYCLIC COMPOUNDS AND METHODS THEREOF” (HEPAITECH (BEIJING) BIOPHARMA TECHNOLOGY CO., LTD., priority 2021, published 2026).
pEC50: −log10 of the molar value. Like-named read-outs stand apart in the source and are kept apart here.

What was measured:
[1] = target: T1, human FXR (NR1H4) (Homo sapiens, UniProt Q96RI1); test: Human FXR (NR1H4) agonist assessment, FXRE-NanoLuc reporter in HEK293T cells; assay type: cell-based
T1 sequence (Q96RI1 1-476 isoform Q96RI1-1): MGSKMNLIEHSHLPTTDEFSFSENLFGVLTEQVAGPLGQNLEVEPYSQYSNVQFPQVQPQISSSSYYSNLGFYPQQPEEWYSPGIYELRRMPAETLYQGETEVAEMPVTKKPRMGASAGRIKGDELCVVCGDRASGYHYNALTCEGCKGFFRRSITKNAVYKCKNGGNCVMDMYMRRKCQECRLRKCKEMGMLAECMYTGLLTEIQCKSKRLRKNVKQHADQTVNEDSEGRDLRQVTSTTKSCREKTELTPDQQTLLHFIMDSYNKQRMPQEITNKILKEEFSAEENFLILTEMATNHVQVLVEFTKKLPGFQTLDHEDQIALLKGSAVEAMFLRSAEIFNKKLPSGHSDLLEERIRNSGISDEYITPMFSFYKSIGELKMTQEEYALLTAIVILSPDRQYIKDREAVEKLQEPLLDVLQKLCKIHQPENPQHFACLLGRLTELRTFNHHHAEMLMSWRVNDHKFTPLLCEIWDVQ
Procedure, shortened: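 HEK293T cells stably expressing human FXR with an FXRE-NanoLuc reporter were treated with compounds for 24 hr at 37 °C, with 0.01% DMSO as negative control. Medium was read for luminescence after 5 min with coelenterazine. EC50 was fitted by sigmoid to concentration-response data.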

[2] = target: MRGPRX4 (Homo sapiens, UniProt Q96LA9); test: MRGPRX4 activation, Fluo-8 Ca2+ FLIPR assay in HEK293T cells stably expressing MRGPRX4; assay type: cell-based; parameters: key to MRGPRX4 activation, Average / MRGPRX4 activation, Ave.: fluorescence change dF/F0; conditions: for EC50: MRGPRX4 activation, Ca2+ fluorescence, no activation in tested range reported as III, read-out: Activity (EC50 μM)
Procedure, shortened: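 Cells seeded overnight to >95% confluence, loaded 40-60 min at room temperature with 2 μM Fluo-8 AM, then kept in HHBS. Baseline read 30 s, compound added, signal followed 150 s more.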

[3] = FXR activation, HEK293T FXRE-NanoLuc reporter, 24 hr
[4] = FXR activation, HEK293T FXRE-NanoLuc reporter, 24 hr, read-out: EC50

Chain of MRGPRX4 (Q96LA9 whole entry): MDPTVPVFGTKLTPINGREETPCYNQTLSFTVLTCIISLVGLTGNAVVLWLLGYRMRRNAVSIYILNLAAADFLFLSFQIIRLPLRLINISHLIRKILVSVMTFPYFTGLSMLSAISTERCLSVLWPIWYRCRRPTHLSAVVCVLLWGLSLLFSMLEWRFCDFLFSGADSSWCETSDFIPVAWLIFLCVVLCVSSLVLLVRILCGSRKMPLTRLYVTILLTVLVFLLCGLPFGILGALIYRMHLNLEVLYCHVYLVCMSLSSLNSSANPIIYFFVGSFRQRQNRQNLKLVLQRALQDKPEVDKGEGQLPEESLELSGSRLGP

SMILES	Efficacy (maximum measured induction of NanoLuc, normalized to CDCA set as 100%) [1, 3]	MRGPRX4 activation, Average ([2]; E3-9, Conc. (Log[M]) −4.0)	MRGPRX4 activation, Average ([2]; E3-9, Conc. (Log[M]) −4.5)	MRGPRX4 activation, Average ([2]; E3-9, Conc. (Log[M]) −5.0)	MRGPRX4 activation, Average ([2]; E3-9, Conc. (Log[M]) −5.4)	MRGPRX4 activation, Average ([2]; E3-9, Conc. (Log[M]) −5.9)	MRGPRX4 activation, Average ([2]; E3-9, Conc. (Log[M]) −6.4)	MRGPRX4 activation, Average ([2]; E3-9, Conc. (Log[M]) −6.9)	MRGPRX4 activation, Average ([2]; E3-9, Conc. (Log[M]) −7.3)	MRGPRX4 activation, Average ([2]; E3-9, Conc. (Log[M]) −7.8)	MRGPRX4 activation, Average ([2]; E3-9, Conc. (Log[M]) −8.3)	Efficacy (maximum measured induction of NanoLuc, normalized to CDCA set as 100%) [1]	pEC50 [1, 4]	EC50 [2] [µM]	MRGPRX4 activation, Ave. ([2]; E3-7, Conc. (Log[M]) −4)	MRGPRX4 activation, Ave. ([2]; E3-7, Conc. (Log[M]) −4.5)	MRGPRX4 activation, Ave. ([2]; E3-7, Conc. (Log[M]) −5)	MRGPRX4 activation, Ave. ([2]; E3-7, Conc. (Log[M]) −5.5)	MRGPRX4 activation, Ave. ([2]; E3-7, Conc. (Log[M]) −6)	MRGPRX4 activation, Ave. ([2]; E3-7, Conc. (Log[M]) −7)	further results
CC[C@H]1[C@@H](O)[C@@H]2[C@H](CC[C@]3(C)[C@@H]([C@H](C)CCN=C=S)CC[C@@H]23)[C@@]2(C)CCC(F)(F)C[C@@H]12 [11-2]	D (efficacy <=100%)	0.030	0.020	0.010	0.020	0.020	0.013	0.013	0.013	0.013	0.025	–	–	–	–	–	–	–	–	–	pEC50 [1]: < 5.00; pEC50 [2]: < 4.00
CC[C@H]1[C@@H](O)[C@@H]2[C@H](CC[C@]3(C)[C@@H]([C@H](C)CCNC(=S)NS(=O)(=O)c4cccs4)CC[C@@H]23)[C@@]2(C)CCC(F)(F)C[C@@H]12 [11-3]	–	0.003	0.010	0.015	0.015	0.015	0.008	0.010	0.015	0.018	0.051	C (key: A: efficacy >400%; B: 300%<efficacy <=400%; C: 100%<efficacy <=300%; D: efficacy <=100%)	> 6.00	> 100	–	–	–	–	–	–	–
CC[C@H]1[C@@H](O)[C@@H]2[C@H](CC[C@]3(C)[C@@H]([C@H](C)CCNC(=S)NS(=O)(=O)c4ccc(C(C)(C)CF)cc4)CC[C@@H]23)[C@@]2(C)CCC(F)(F)C[C@@H]12 [11-4]	–	0.013	0.013	0.020	0.015	0.015	0.013	0.010	0.015	0.015	0.022	B (key: A: efficacy >400%; B: 300%<efficacy <=400%; C: 100%<efficacy <=300%; D: efficacy <=100%)	> 6.00	> 100	–	–	–	–	–	–	–
[2H]C1([2H])CC[C@@]2(C)[C@@H](C1)[C@@H](CC)[C@@H](O)[C@@H]1[C@@H]2CC[C@]2(C)[C@@H]([C@H](C)CCNC(=O)NS(=O)(=O)c3ccc(C(C)(C)CF)cc3)CC[C@@H]12 [12-2]	A (efficacy >400%)	–	–	–	–	–	–	–	–	–	–	–	> 6.00	> 100	0.000	−0.041	−0.041	−0.054	−0.041	−0.027	–
[2H]C1CC[C@@]2(C)[C@@H](C1)[C@@H](CC)[C@@H](O)[C@@H]1[C@@H]2CC[C@]2(C)[C@@H]([C@H](C)CCC(=O)O)CC[C@@H]12 (stereo partly shown) [13-1]	C (100%<efficacy <=300%)	0.104	−0.009	0.013	0.013	0.018	0.015	0.018	0.013	0.010	0.013	–	> 6.00	> 100	–	–	–	–	–	–	–
[2H]C1CC[C@@]2(C)[C@@H](C1)[C@@H](CC)[C@@H](O)[C@@H]1[C@@H]2CC[C@]2(C)[C@@H]([C@H](C)CCNC(=O)NS(=O)(=O)c3ccc(C(C)(C)CF)cc3)CC[C@@H]12 (stereo partly shown) [13-2]	A (efficacy >400%)	–	–	–	–	–	–	–	–	–	–	–	> 6.00	> 100	−0.054	−0.054	−0.027	−0.027	−0.027	0.000	–
